Earlier results, collected in patent publication US20060246141A1, “Nanoparticulate lipase inhibitor formulations” (Elan Pharma International, Limited, priority 2005, published 2006).
Where two headings read alike, the source gives them in different places.

Legend:
[1] = physiological pH range
[2] = tested on: gastric and pancreatic lipases; details: recommended therapeutic dose of 120 mg three times a day

CCCCCCCCCCCC(CC1OC(=O)[C@H]1CCCCCC)OC(=O)C(CC(C)C)NC=O (stereo in doubt) [Orlistat, (S)-2-formylamino-4-methyl-pentanoic acid (S)-1-[[(2S, 3S)-3-hexyl-4-oxo-2-oxetanyl]methyl]-dodecyl ester]
pKa [1]: no pKa within the physiological pH range
Inhibition of dietary fat absorption [2]: approximately 30%
Solubility (in chloroform): freely soluble
Solubility (in methanol and ethanol): very soluble
Solubility (in water): practically insoluble
